SMILES strings stand for the structures.

Assay [1] deals with T1, hM1 (human Muscarinic receptor subtype 1) (Homo sapiens, UniProt P11229).
T1 construct: expressed in transfected cells; host or cells: CHO cells (Chinese hamster ovary cells, ATCC)
T1 sequence (P11229 1-460): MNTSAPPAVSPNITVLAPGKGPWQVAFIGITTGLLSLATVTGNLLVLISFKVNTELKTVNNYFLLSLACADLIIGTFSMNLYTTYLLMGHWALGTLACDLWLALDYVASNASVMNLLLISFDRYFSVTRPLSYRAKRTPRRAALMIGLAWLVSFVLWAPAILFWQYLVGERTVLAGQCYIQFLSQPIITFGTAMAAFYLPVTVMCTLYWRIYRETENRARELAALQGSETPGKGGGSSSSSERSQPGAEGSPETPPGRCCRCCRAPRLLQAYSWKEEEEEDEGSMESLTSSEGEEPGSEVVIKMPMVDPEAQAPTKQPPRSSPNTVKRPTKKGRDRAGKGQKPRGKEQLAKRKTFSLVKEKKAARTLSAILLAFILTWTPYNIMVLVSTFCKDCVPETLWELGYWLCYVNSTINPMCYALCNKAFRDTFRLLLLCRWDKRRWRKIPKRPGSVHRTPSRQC
In words: Human M1 calcium mobilization FLIPR assay. The assay is classed as cell-based. Conditions: CHO cells expressing hM1, intracellular Ca2+ release. Here is the method: (§1) The compound activity in the present invention (EC50 or IC50) is measured using a 384 plate-based imaging assay that monitors drug induced intracellular Ca^2+ release in whole cells. Activation of hM1 (human Muscarinic receptor subtype 1, gene bank access NM_000738), rM1 (rat Muscarinic receptor subtype 1, gene bank access NM_080773), hM3 (human Muscarinic receptor subtype 3, gene bank access NM_000740NM_000740) and hM5 (human Muscarinic receptor subtype 5, gene bank access NM_0121258), receptors expressed in CHO cells (Chinese hamster ovary cells, ATCC) is quantified in a Molecular Devices FLIPR II™ instrument as an increase in fluorescent signal. Inhibition of hM3 and hM5 by compounds is determined by the decrease in fluorescent signal in response to 2 nM acetylcholine activation.
(§2) Prior to experiment, the cell culture medium is removed from the plates by inversion. […] Plates are incubated at 37° C. for 60 minutes prior to start the experiment. The incubation is terminated by washing the cells four times in assay buffer, leaving a residual 25 μl buffer per well. Cell plates are then transferred to the FLIPR, ready for compound additions.
(§3) The day of experiment, acetylcholine and compounds are diluted in assay buffer in three-fold concentration range (10 points serial dilution) for addition by FLIPR instrument. For all calcium assays, a baseline reading is taken for 10 seconds followed by the addition of 12.5 μl of compounds, resulting in a total well volume of 37.5 μl. Data is collected every second for 60 pictures and then every 6 seconds for 20 pictures prior to the addition of agonist. For hM3 and hM5, before agonist addition, a second baseline reading is taken for 10 seconds followed by the addition of 12.5 μl of agonist or buffer, producing a final volume of 50 μl. After agonist stimulation, the FLIPR continues to collect data every second for 60 pictures and then every 6 seconds for 20 pictures. The fluorescence emission is read using filter 1 (emission 510-570 nm) by the FLIPR on board CCD camera.
(§4) Calcium mobilization output data are calculated as the maximal relative fluorescence unit (RFU) minus the minimal value for both compound and agonist reading frame (except for hM1 and rM1 using only the maximal RFU). Data are analyzed using sigmoidal fits of a non-linear curve-fitting program (XLfit version 4.2.2 Excel add-in version 4.2.2 build 18 math 1Q version 2.1.2 build 18). All pEC50 and pIC50 values are reported as arithmetic means±standard error of mean of ‘n’ independent experiments.

For assay [2], the target named is T2, hM5 (human Muscarinic receptor subtype 5) (Homo sapiens, UniProt P08912).
T2 construct: expressed in transfected cells; host or cells: CHO cells (Chinese hamster ovary cells, ATCC)
T2 sequence (P08912 1-532): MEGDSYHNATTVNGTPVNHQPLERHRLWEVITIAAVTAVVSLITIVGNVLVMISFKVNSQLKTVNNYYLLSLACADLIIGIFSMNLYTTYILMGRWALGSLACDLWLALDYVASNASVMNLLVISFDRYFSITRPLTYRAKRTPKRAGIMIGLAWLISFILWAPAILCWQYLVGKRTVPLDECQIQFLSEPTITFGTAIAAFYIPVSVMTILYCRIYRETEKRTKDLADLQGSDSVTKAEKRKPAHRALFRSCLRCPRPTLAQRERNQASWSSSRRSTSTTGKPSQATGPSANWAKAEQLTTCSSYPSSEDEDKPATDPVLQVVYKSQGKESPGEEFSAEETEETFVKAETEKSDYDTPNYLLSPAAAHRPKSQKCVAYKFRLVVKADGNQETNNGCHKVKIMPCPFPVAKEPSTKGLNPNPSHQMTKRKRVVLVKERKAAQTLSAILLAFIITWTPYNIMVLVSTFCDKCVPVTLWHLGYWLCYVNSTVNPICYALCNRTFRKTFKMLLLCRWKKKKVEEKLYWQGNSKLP
In words: Human M5 calcium mobilization FLIPR assay. In kind it is cell-based. Conditions: CHO cells expressing hM5, intracellular Ca2+ release. The protocol: as §1, §2, §3, §4

For assay [3], the system named is SNL rats (heat hyperalgesia). In words: Rat SNL heat hyperalgesia assay. In kind it is in vivo. As to conditions: sc, male Sprague Dawley SNL rats, paw withdrawal latency, morphine s.c. 30 min before testing, example 2 per os 60 min before testing, combination ratio example 2:morphine 1:1.56.
Protocol: Rats undergo spinal nerve ligation surgery as described in Kim and Chung (1992) (reference 1). Briefly, rats are anesthetized with isoflurane, the left L5 and L6 are isolated and tightly ligated with 4-0 silk thread. The wound is closed by suturing and applying tissue adhesive. Compound testing is performed at day 9 to day 36 post-surgery.
For behavioral testing, the animals are acclimatized to the test room environment for a minimum of 30 min. In order to assess the degree of hyperalgesia, the animals are placed on a glass surface (maintained at 30° C.), and a heat-source is focused onto the plantar surface of the left paw. The time from the initiation of the heat until the animal withdraws the paw is recorded. Each animal is tested twice (with an interval of 10 min between the two tests). A decrease in Paw Withdrawal Latency (PWL, average of the two tests) relative to naïve animals indicates a hyperalgesic state. The rats with a PWL of at least 2 seconds less than average PWL of Naïve group are selected for compound testing. […]
In order to assess the degree of heat hyperalgesia, the rats were individually placed in Plexiglas boxes on the glass surface (maintained at 30° C.) of a paw thermal stimulator system (Model 390, series 8, IITC Life Science, Woodland Hills, USA) and allowed to acclimate for 30 min. […] Paw withdrawal latencies (PWLs) were calculated as the mean of the two values.
The target in assay [4] is T3, hM3 (human Muscarinic receptor subtype 3) (Homo sapiens, UniProt P20309).
T3 construct: expressed in transfected cells; host or cells: CHO cells (Chinese hamster ovary cells, ATCC)
T3 sequence (P20309 whole entry): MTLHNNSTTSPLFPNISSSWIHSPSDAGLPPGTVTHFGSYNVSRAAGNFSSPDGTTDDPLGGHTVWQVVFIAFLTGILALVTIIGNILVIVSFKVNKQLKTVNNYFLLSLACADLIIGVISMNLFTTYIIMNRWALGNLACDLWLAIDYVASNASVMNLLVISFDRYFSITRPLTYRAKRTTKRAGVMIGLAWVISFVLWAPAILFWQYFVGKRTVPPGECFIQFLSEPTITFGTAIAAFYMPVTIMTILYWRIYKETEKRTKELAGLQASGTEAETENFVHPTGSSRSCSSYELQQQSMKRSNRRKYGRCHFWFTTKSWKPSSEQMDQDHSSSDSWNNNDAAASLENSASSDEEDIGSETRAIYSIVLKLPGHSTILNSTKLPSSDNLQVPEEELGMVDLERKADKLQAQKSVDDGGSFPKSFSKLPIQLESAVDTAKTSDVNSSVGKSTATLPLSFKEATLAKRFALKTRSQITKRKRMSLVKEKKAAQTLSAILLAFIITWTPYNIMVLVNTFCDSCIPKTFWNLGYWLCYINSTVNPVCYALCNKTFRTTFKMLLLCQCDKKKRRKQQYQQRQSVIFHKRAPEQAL
In words: Human M3 calcium mobilization FLIPR assay. In kind it is cell-based. Conditions: CHO cells expressing hM3, intracellular Ca2+ release. The protocol:
as §1, §2, §3, §4

Regarding `CC(C)OC(=O)N1CCC(C)(N2CCC(N3C(=O)N[C@H]4CCCC[C@@H]43)CC2)CC1` [Example 02, Propan-2-yl 4-[4-[(3aS,7aS)-2-oxo-3a,4,5,6,7,7a-hexahydro-3H-benzoimidazol-1-yl]-1-piperidyl]-4-methyl-piperidine-1-carboxylate], the EC50 in assay [1] is 0.0044 µM; in assay [2], more than 40 µM; in assay [4], more than 40 µM. Also, the ED50 in assay [3] amounted to 2.4 µmol/kg.

On to `CC1(N2CCC(N3C(=O)C[C@H]4CCCC[C@@H]43)CC2)CCN(C(=O)C2CC2)CC1` [Example 15, (3aR,7aS)-1-[1-[1-(cyclopropanecarbonyl)-4-methyl-4-piperidyl]-4-piperidyl]-3a,4,5,6,7,7a-hexahydro-3H-indol-2-one], for which the values for the EC50 in assay [1], in assay [2] and in assay [4] were 0.036 µM, more than 40 µM and more than 40 µM, respectively.

As to `CC#CCOC(=O)N1CCC(C)(N2CCC(N3C(=O)N[C@H]4CCCC[C@@H]43)CC2)CC1` [Example 16, But-2-ynyl 4-[4-[(3aS,7aS)-2-oxo-3a,4,5,6,7,7a-hexahydro-3H-benzimidazol-1-yl]-1-piperidyl]-4-methyl-piperidine-1-carboxylate], the EC50 in assay [1] is 0.0036 µM; in assay [2], more than 40 µM; in assay [4], more than 40 µM.

Regarding `CCC(=O)N1CCC(C)(N2CCC(N3C(=O)N[C@H]4CCCC[C@@H]43)CC2)CC1` [Example 18, (3aS,7aS)-3-[1-(4-methyl-1-propanoyl-4-piperidyl)-4-piperidyl]-3a,4,5,6,7,7a-hexahydro-1H-benzimidazol-2-one], the EC50 in assay [1] is 0.0666 µM; in assay [2] it was more than 40 µM; in assay [4], more than 40 µM.

Values taken from patent US8119661B2, “Piperidine derivatives and their use as muscarinic receptor modulators” (AstraZeneca AB, priority 2007, dated 2012).
